Source: PubChem BioAssay AID330 (DTP/NCI, 2004)
Where “and” joins values, the source holds several entries; their conditions need not be identical. Equal entries are not always repeated. Inconclusive results and toxic doses are left out. The calls were made as follows: active = survival T/C of 150% or more; inactive = T/C below 125% in these data.

Tested on: P388 leukemia ip, CD2F1 mice, survival T/C
Test: NCI In Vivo Anticancer Drug Screen. Data for tumor model P388 Leukemia (intraperitoneal) in CD2F1 (CDF1) mice
Details: endpoint: median survival time, higher = longer survival
Procedure, shortened: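 Mice carrying the transplanted tumor received test compound or vehicle. Survival was recorded in each group, and the value is the treated-group measurement divided by that of the vehicle-treated control group.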

[1] = dose: 50.0 mg/kg/injection, schedule: Q01DX009 (ip), vehicle: Klucel (hydroxypropylcellulose) (HPC)
[2] = dose: 100.0 mg/kg/injection, schedule: Q01DX009 (ip), vehicle: Klucel (hydroxypropylcellulose) (HPC)
[3] = dose: 200.0 mg/kg/injection, schedule: Q01DX009 (ip), vehicle: Klucel (hydroxypropylcellulose) (HPC)
[4] = dose: 50.0 mg/kg/injection, schedule: Q01DX005 (ip), vehicle: saline with Tween-80
[5] = dose: 100.0 mg/kg/injection, schedule: Q01DX005 (ip), vehicle: saline with Tween-80
[6] = dose: 200.0 mg/kg/injection, schedule: Q01DX005 (ip), vehicle: saline with Tween-80
[7] = dose: 50.0 mg/kg/injection, schedule: Q01DX009 (ip), vehicle: saline with Tween-80
[8] = dose: 100.0 mg/kg/injection, schedule: Q01DX009 (ip), vehicle: saline with Tween-80
[9] = dose: 200.0 mg/kg/injection, schedule: Q01DX009 (ip), vehicle: saline with Tween-80
[10] = dose: 6.25 mg/kg/injection, schedule: Q01DX009 (ip), vehicle: saline with Tween-80
[11] = dose: 12.5 mg/kg/injection, schedule: Q01DX009 (ip), vehicle: saline with Tween-80
[12] = dose: 25.0 mg/kg/injection, schedule: Q01DX005 (ip), vehicle: Klucel (hydroxypropylcellulose) (HPC)
[13] = dose: 60.0 mg/kg/injection, schedule: Q01DX005 (ip), vehicle: saline with Tween-80
[14] = dose: 120.0 mg/kg/injection, schedule: Q01DX005 (ip), vehicle: saline with Tween-80
[15] = dose: 240.0 mg/kg/injection, schedule: Q01DX005 (ip), vehicle: saline with Tween-80
[16] = dose: 100.0 mg/kg/injection, schedule: Q04DX003 (ip), vehicle: saline with Tween-80
[17] = dose: 50.0 mg/kg/injection, schedule: Q01DX005 (ip), vehicle: Klucel (hydroxypropylcellulose) (HPC)
[18] = dose: 100.0 mg/kg/injection, schedule: Q01DX005 (ip), vehicle: Klucel (hydroxypropylcellulose) (HPC)
[19] = dose: 200.0 mg/kg/injection, schedule: Q01DX005 (ip), vehicle: Klucel (hydroxypropylcellulose) (HPC)
[20] = dose: 60.0 mg/kg/injection, schedule: Q01DX005 (ip), vehicle: Klucel (hydroxypropylcellulose) (HPC)
[21] = dose: 120.0 mg/kg/injection, schedule: Q01DX005 (ip), vehicle: Klucel (hydroxypropylcellulose) (HPC)
[22] = dose: 240.0 mg/kg/injection, schedule: Q01DX005 (ip), vehicle: Klucel (hydroxypropylcellulose) (HPC)

Measured: T/C

CCOC(=O)C1(C(=O)OCC)CCC1
inactive: [1] 100 % of control | [2] 92 % of control | [3] 96 % of control | dose: 400.0 mg/kg/injection, schedule: Q01DX009 (ip), vehicle: Klucel (hydroxypropylcellulose) (HPC) 101 % of control

CC(C)CCNO
inactive: [4] 96 % of control | [5] 100 % of control | [6] 93 % of control

COc1cc[c]([Sb]2([c]3ccc(OC)cc3)([c]3ccc(OC)cc3)[NH]c3cc(C(c4ccccc4)(c4ccccc4)c4ccccc4)cc(C(C)(C)C)c3[O]2)cc1
inactive: [7] 100 % of control | [8] 99 % of control | [9] 100 % of control

CCCCN(C)C(=S)N/N=C(\C)c1ccccn1
inactive: [10] 98 % of control | [11] 101 % of control | dose: 25.0 mg/kg/injection, schedule: Q01DX009 (ip), vehicle: saline with Tween-80 111 % of control

CN(C)CCCOc1nc2c(c(=O)n(C)c(=O)n2C)n1C (tested in a mixture with another compound)
inactive: dose: 6.25 mg/kg/injection, schedule: Q01DX005 (ip), vehicle: Klucel (hydroxypropylcellulose) (HPC) 100 % of control | dose: 12.5 mg/kg/injection, schedule: Q01DX005 (ip), vehicle: Klucel (hydroxypropylcellulose) (HPC) 106 % of control | [12] 110 % of control

O=[N+]([O-])c1ccccc1NC1CCN(CCCC2(c3ccc(F)cc3)OCCO2)CC1
inactive: [13] 97 % of control | [14] 101 % of control | [15] 99 % of control

CCCn1c(C)nc2c(N)cc(C(F)(F)F)cc21
inactive: dose: 100.0 mg/kg/injection, schedule: Q04DX002 (ip), vehicle: saline with Tween-80 105 % of control | dose: 200.0 mg/kg/injection, schedule: Q04DX002 (ip), vehicle: saline with Tween-80 100 % of control | dose: 400.0 mg/kg/injection, schedule: Q04DX002 (ip), vehicle: saline with Tween-80 95 % of control

CCCCCCCCCCCCCCCC[N+](C)(C)CCBr
inactive: dose: 3.13 mg/kg/injection, schedule: Q01DX009 (ip), vehicle: saline with Tween-80 109 % of control and 100 % of control | [10] 122 % of control and 93 % of control and 103 % of control | [11] 115 % of control [middle of 4 runs]

CC(=O)OCN(C)N=Nc1ccc(Br)cc1
inactive: dose: 36.0 mg/kg/injection, schedule: Q01DX005 (ip), vehicle: Klucel (hydroxypropylcellulose) (HPC) 94 % of control | dose: 72.0 mg/kg/injection, schedule: Q01DX005 (ip), vehicle: Klucel (hydroxypropylcellulose) (HPC) 92 % of control

CCCCOCC(=O)OCCCC
inactive: [8] 109 % of control | [16] 110 % of control | [9] 118 % of control | dose: 200.0 mg/kg/injection, schedule: Q04DX003 (ip), vehicle: saline with Tween-80 115 % of control | dose: 400.0 mg/kg/injection, schedule: Q01DX009 (ip), vehicle: saline with Tween-80 95 % of control | dose: 400.0 mg/kg/injection, schedule: Q04DX003 (ip), vehicle: saline with Tween-80 100 % of control

CC(=O)O[C@H]1[C@@H](C(C)C)CC[C@@]2(C)[C@H](Br)CC[C@@](C)(O)[C@H]12
inactive: dose: 20.0 mg/kg/injection, schedule: Q01DX005 (ip), vehicle: other 105 % of control | dose: 40.0 mg/kg/injection, schedule: Q01DX005 (ip), vehicle: other 105 % of control | dose: 80.0 mg/kg/injection, schedule: Q01DX005 (ip), vehicle: other 105 % of control

CCc1c(C)sc(=S)n1C(C)C(=O)OC (stereo not given)
inactive: [4] 98 % of control | [5] 106 % of control | [6] 107 % of control

CCCN1C(=O)CC(c2ccc(OC)c(OC)c2)C1=O (stereo not given)
inactive: [13] 90 % of control | [14] 90 % of control | [15] 90 % of control

C[Si](C)(C)S[Si](C)(C)C
inactive: [1] 106 % of control | [2] 100 % of control

CC(=O)c1c(O)c(C)cc2c1CCc1ccc(O)c(C)c1-2
inactive: dose: 2.0 mg/kg/injection, schedule: Q01DX009 (ip), vehicle: Klucel (hydroxypropylcellulose) (HPC) 116 % of control | dose: 4.0 mg/kg/injection, schedule: Q01DX009 (ip), vehicle: Klucel (hydroxypropylcellulose) (HPC) 100 % of control | dose: 8.0 mg/kg/injection, schedule: Q01DX009 (ip), vehicle: Klucel (hydroxypropylcellulose) (HPC) 107 % of control | dose: 16.0 mg/kg/injection, schedule: Q01DX009 (ip), vehicle: Klucel (hydroxypropylcellulose) (HPC) 108 % of control

O=C(O)C1(Cc2ccccc2)C(=O)C=Cc2ccccc21 (stereo not given)
inactive: dose: 100.0 mg/kg/injection, schedule: Q01DX001 (ip), vehicle: Klucel (hydroxypropylcellulose) (HPC) 101 % of control | dose: 200.0 mg/kg/injection, schedule: Q01DX001 (ip), vehicle: Klucel (hydroxypropylcellulose) (HPC) 101 % of control | dose: 400.0 mg/kg/injection, schedule: Q01DX001 (ip), vehicle: Klucel (hydroxypropylcellulose) (HPC) 97 % of control

CCOC(=O)Nc1cc(NCC(=O)c2ccc(Cl)cc2)c([N+](=O)[O-])c(N)n1
inactive: dose: 50.0 mg/kg/injection, schedule: Q01DX001 (ip), vehicle: saline with Tween-80 92 % of control | dose: 100.0 mg/kg/injection, schedule: Q01DX001 (ip), vehicle: saline with Tween-80 90 % of control | dose: 200.0 mg/kg/injection, schedule: Q01DX001 (ip), vehicle: saline with Tween-80 88 % of control

C1CC2CCC1CNC2
inactive: dose: 25.0 mg/kg/injection, schedule: Q04DX003 (ip), vehicle: saline 104 % of control | dose: 50.0 mg/kg/injection, schedule: Q04DX003 (ip), vehicle: saline 104 % of control | dose: 100.0 mg/kg/injection, schedule: Q04DX003 (ip), vehicle: saline 95 % of control

O=S(=O)(NCCSSCCNS(=O)(=O)c1cccc2cccnc12)c1cccc2cccnc12
inactive: [1] 100 % of control | [2] 89 % of control | [3] 91 % of control

COc1ccc2c(C)cc(N/N=C\c3ccnc4ccccc34)nc2c1
inactive: [17] 91 % of control | [18] 92 % of control | [19] 90 % of control

COC(=O)[C@@H]1CCC(/C(C#N)=C2/CC[C@@H](C(=O)OC)N2)=N1
inactive: [13] 96 % of control | [14] 95 % of control | [15] 94 % of control

CC(=O)Nn1cnc2c(SCc3ccccc3)ncnc21
inactive: [1] 100 % of control | [7] 100 % of control | [2] 100 % of control | [8] 95 % of control | [16] 95 % of control | [3] 100 % of control | [9] 122 % of control

CCn1c2ccccc2c2cc(N)c(N=Nc3ccc(N(C)C)cc3)cc21
inactive: [1] 113 % of control | [2] 105 % of control | [3] 103 % of control

CC(=O)N1CN(C(C)=O)CN(C(C)=O)C1
inactive: dose: 60.0 mg/kg/injection, schedule: Q01DX005 (ip), vehicle: saline 94 % of control | dose: 120.0 mg/kg/injection, schedule: Q01DX005 (ip), vehicle: saline 94 % of control | dose: 240.0 mg/kg/injection, schedule: Q01DX005 (ip), vehicle: saline 100 % of control

Cc1cc2c3c(c1)C(C(F)(F)F)(C(F)(F)F)OI3OC2(C(F)(F)F)C(F)(F)F
inactive: [12] 95 % of control | [17] 95 % of control | [18] 96 % of control | [19] 97 % of control

CCN(CC)C1C2=C(CCCC2)OS(=O)(=O)C1c1ccccc1 (stereo not given)
inactive: [20] 103 % of control | [21] 97 % of control | [22] 95 % of control

CN1C(=O)N(C)C(=O)C(Nc2ccc([N+](=O)[O-])cc2)(SCCO)C1=O
inactive: [4] 100 % of control | [5] 104 % of control | [6] 104 % of control

O=C(CCCl)Oc1ccc(Br)cc1
inactive: dose: 100.0 mg/kg/injection, schedule: Q01DX009 (ip), vehicle: saline sonified 111 % of control | dose: 200.0 mg/kg/injection, schedule: Q01DX009 (ip), vehicle: saline sonified 100 % of control | dose: 400.0 mg/kg/injection, schedule: Q01DX009 (ip), vehicle: saline sonified 94 % of control

COc1ccc2[s+]c(-c3ccccc3)ccc2c1
inactive: [20] 100 % of control | [21] 108 % of control | [22] 111 % of control
